The source of these data is PubChem BioAssay (NCI).

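Cultured in 96-well plates, cells were exposed to test compound for 48 hours across five concentrations. Definition used: TGI = concentration required for complete inhibition of growth.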

Among the test systems are RPMI-8226 leukemia; LOX IMVI melanoma; MALME-3M melanoma; K-562 leukemia; UO-31 renal; SW-620 colon; MCF7 breast; CAKI-1 renal; A549 NSCLC; EKVX NSCLC; HL-60(TB) leukemia; MDA-N; BT-549 breast; NCI-H460 lung.
Holding throughout (assay): NCI anticancer screen, dose series, 48 h

Regarding `CCCCc1ccc(Nc2nc(N)c3ncn(COCCO)c3n2)cc1`, the TGI in the assay with RPMI-8226 leukemia was 94.2 µM; with LOX IMVI melanoma, 37.4 µM; in the assay with MALME-3M melanoma, 52.7 µM; in the assay on K-562 leukemia, more than 100 µM; in the assay with UO-31 renal, more than 100 µM; with SW-620 colon, more than 100 µM. Further, the TGI in the assay on MCF7 breast, in the assay with CAKI-1 renal, with A549 NSCLC, in the assay with EKVX NSCLC, in the assay on HL-60(TB) leukemia and in the assay on MDA-N was more than 100 µM each time. For the same compound, the TGI in the assay on BT-549 breast worked out at 59.8 µM.

For the compound `Nc1ccccc1OCc1cc(=O)c(OCc2ccccc2)co1`, the TGI with RPMI-8226 leukemia, in the assay on LOX IMVI melanoma, in the assay with NCI-H460 lung, in the assay with MALME-3M melanoma, in the assay on K-562 leukemia and in the assay with SW-620 colon was more than 100 µM in each case. Besides, the TGI was 89 µM with MCF7 breast; more than 100 µM in the assay on CAKI-1 renal; more than 100 µM with A549 NSCLC; more than 100 µM in the assay with EKVX NSCLC; more than 100 µM in the assay on HL-60(TB) leukemia; more than 100 µM in the assay on MDA-N. In the assay on BT-549 breast, the TGI is more than 100 µM.

Consider `Cc1cc(-c2nc3cc(O)ccc3s2)ccc1N`, for which the TGI was more than 100 µM in the assay with LOX IMVI melanoma; more than 100 µM in the assay on NCI-H460 lung; more than 100 µM with MALME-3M melanoma; more than 100 µM in the assay with K-562 leukemia; 78.8 µM in the assay with UO-31 renal; more than 100 µM in the assay on SW-620 colon. For the same compound, the TGI was more than 100 µM with MCF7 breast; more than 100 µM with CAKI-1 renal; more than 100 µM in the assay with A549 NSCLC; 60.1 µM with EKVX NSCLC; more than 100 µM with HL-60(TB) leukemia; more than 100 µM with MDA-N. For the same compound, the TGI with BT-549 breast is more than 100 µM.

As to `COc1cc(-c2oc(C=Nc3ccccc3)c([N+](=O)[O-])c2-c2ccc(O)c(OC)c2)ccc1O`, the TGI in the assay with RPMI-8226 leukemia is 72.4 µM; with LOX IMVI melanoma it was more than 100 µM; in the assay with NCI-H460 lung it was 35.5 µM; in the assay on K-562 leukemia, more than 100 µM; in the assay on UO-31 renal it was 29.6 µM; in the assay on SW-620 colon it was more than 85.3 µM. Also, the TGI is more than 100 µM in the assay on MCF7 breast; 47.2 µM in the assay with CAKI-1 renal; more than 87.2 µM in the assay on A549 NSCLC; more than 73.9 µM in the assay with EKVX NSCLC; 4.28 µM in the assay with HL-60(TB) leukemia; more than 85.7 µM with MDA-N. The TGI in the assay on BT-549 breast is more than 100 µM.

`N/C(COc1ccc(Cl)cc1)=N\NC(=O)c1ccncc1`: the TGI in the assay with RPMI-8226 leukemia, with LOX IMVI melanoma, with NCI-H460 lung, in the assay on MALME-3M melanoma, in the assay with K-562 leukemia and in the assay with SW-620 colon was more than 100 µM in each case. Besides, the TGI with MCF7 breast, in the assay on CAKI-1 renal, in the assay on A549 NSCLC, in the assay with EKVX NSCLC, in the assay on HL-60(TB) leukemia and with MDA-N was more than 100 µM throughout. The compound further showed a TGI in the assay with BT-549 breast of more than 100 µM.

With `COc1ccc2c(c1)CCCN1Cc3ccccc3CC21` (centres undefined), the TGI in the assay with LOX IMVI melanoma, in the assay on NCI-H460 lung, with MALME-3M melanoma, with K-562 leukemia, with UO-31 renal and in the assay with SW-620 colon was more than 100 µM each time. For the same compound, the TGI in the assay with MCF7 breast, in the assay with CAKI-1 renal, with A549 NSCLC, in the assay with EKVX NSCLC, in the assay on HL-60(TB) leukemia and with MDA-N was more than 100 µM throughout. Further, the TGI in the assay on BT-549 breast is more than 100 µM.

With `COc1ccc(/C(C)=N/NC(=O)c2ccncc2)cc1OC`, the TGI in the assay with RPMI-8226 leukemia, in the assay on LOX IMVI melanoma, in the assay with NCI-H460 lung, in the assay with MALME-3M melanoma, in the assay with K-562 leukemia and with UO-31 renal was more than 10 µM throughout. The TGI in the assay with SW-620 colon, in the assay with MCF7 breast, in the assay on CAKI-1 renal, with A549 NSCLC, in the assay with HL-60(TB) leukemia and with MDA-N was more than 10 µM throughout. Also, in the assay with BT-549 breast, the TGI is more than 10 µM.

As to `Fc1ccc(Nc2nnc(-c3ccccn3)s2)cc1`, the TGI with RPMI-8226 leukemia, in the assay on LOX IMVI melanoma, in the assay with NCI-H460 lung, with MALME-3M melanoma, in the assay with SW-620 colon and in the assay on MCF7 breast was more than 100 µM throughout. Also, the TGI in the assay with CAKI-1 renal, in the assay on A549 NSCLC, in the assay with EKVX NSCLC, with HL-60(TB) leukemia, in the assay with MDA-N and with BT-549 breast was more than 100 µM throughout.

On to `CC[N+]1(C)CCC(O)(/C=C/c2ccc(Cl)cc2)C(C(=O)/C=C/c2ccc(Cl)cc2)C1` (centres undefined), for which the TGI is more than 21.6 µM with LOX IMVI melanoma; more than 28.2 µM in the assay on NCI-H460 lung; 24.3 µM with MALME-3M melanoma; 5.71 µM in the assay on K-562 leukemia; 20.2 µM in the assay with UO-31 renal; more than 36.6 µM in the assay with MCF7 breast. Besides, the TGI in the assay with CAKI-1 renal was 3.71 µM; in the assay on A549 NSCLC it was 43 µM; in the assay with EKVX NSCLC it was more than 57.3 µM; with HL-60(TB) leukemia, 4.87 µM; in the assay with MDA-N, more than 34.4 µM; in the assay with BT-549 breast, 39.3 µM.

In the case of `O=C1NC(=NC2CCCCC2)C2(CCN(CCCC3(c4ccc(F)cc4)OCCO3)CC2)N1c1ccccc1`, the TGI in the assay with RPMI-8226 leukemia was 64.5 µM; in the assay on LOX IMVI melanoma, 39 µM; with MALME-3M melanoma it was 30.5 µM; in the assay with UO-31 renal it was 25.9 µM; in the assay with SW-620 colon it was 50.2 µM; in the assay on MCF7 breast it was 48.3 µM. The TGI is 50.3 µM in the assay on CAKI-1 renal; 46.3 µM in the assay with A549 NSCLC; 36.2 µM in the assay with EKVX NSCLC; 28.7 µM in the assay with HL-60(TB) leukemia; 28.7 µM with MDA-N; 18.5 µM in the assay on BT-549 breast.

On to `COC(=O)C1(C)CCCC2(C)C3CCC4CC3(C=C4CO)CCC12` (centres undefined), for which the TGI in the assay on RPMI-8226 leukemia was 48.6 µM; in the assay with LOX IMVI melanoma, 47.4 µM; in the assay with MALME-3M melanoma it was more than 100 µM; with UO-31 renal, more than 100 µM; in the assay with SW-620 colon it was more than 100 µM; with MCF7 breast, 72.7 µM. Besides, the TGI in the assay with CAKI-1 renal was more than 100 µM; in the assay with A549 NSCLC, more than 100 µM; in the assay with EKVX NSCLC, more than 100 µM; in the assay on HL-60(TB) leukemia it was 43.9 µM; in the assay on MDA-N, more than 100 µM; with BT-549 breast, more than 100 µM.
